The record followed here is patent US8936809B2, “Method for treating prostate diseases based on local delivery of active substances” (Lidds AB, priority 2005, dated 2015).

Where “and” joins values, the source holds several entries; their conditions need not be identical. Identical values can stand only once. Like-named read-outs stand apart in the source and are kept apart here.

This series in a line: Plasma pharmacokinetics and tissue level after controlled release implant into bulbourethral gland of male sheep (Example 2). The format is in vivo. The method, then:
The major purpose of the present animal study was to examine the pharmacokinetics, efficacy and safety of the novel local drug delivery system with 2-hydroxyflutamide, a selective antagonist to the androgen receptor (AR). A ceramic based drug delivery product was administered into an androgen dependent tissue (the bulbourethral gland) in male sheep. In total 11 male sheep were divided into two separate groups. One group was given 2-hydroxyflutamide by the local implant delivery system as a single administration into the bulbourethral gland and was monitored during 2 months. Each sheep in this treatment group received the prostate implant by a single dose of 250 mg. The other group only received ceramic formulation without any active drug substance.
The implant drug delivery system was inserted locally, via rectum, into the androgen dependent tissue (bulbourethral gland) through sterile needles during rectal ultrasound guidance. The animals were during anaesthesia throughout the insertion procedure. The sterile ceramic based implant had two major components: calcium sulphate (CaSO4-0.5H2O) and 2-hydroxyflutamide. The composition of the formulation was 250 mg 2-hydroxyflutamide+2.25 g calcium sulphate di-hydrate+5.0 g calcium sulphate hemi-hydrate and it was mixed with solution: 3.5 ml of water solution (with 1% acetic acid and 1% methyl cellulose). […] The amount injected into each lobe of the androgen sensitive bulbourethral gland was about 2.0-3.0 ml.
Quantification of 2-hydroxy-flutamide in plasma samples was done by HPLC-MS. HPLC was performed with a Surveyor HPLC system equipped with a CTC Pal autosampler. The analytical column was a Zorbax Eclipse XDB-18 (2.1 mm×50 mm, particle size 5 μm) connected to a guard column. The calibration curves were constructed by linear regression of the peak area ratio of 2-hydroxy-flutamide and internal standard as a function of 2-hydroxy-flutamide concentrations. The method performance was studied using quality control (QC) samples, which were prepared by spiking blank plasma with 2-hydroxy-flutamide.
Sheep plasma (unknown, QC or calibration sample) at a volume of 100 μL was mixed with 100 μL of internal standard solution (nilutamide at 0.025 μg/mL) and 250 μL of acetonitrile. A subsequent vortex mix was performed for 20 seconds followed by a centrifugation for 10 minutes. […] of the supernatant was transferred to a clean test tube and evaporated to dryness at 50° C. in a gentle stream of nitrogen. The residue was reconstituted in 100 μL aqueous formic acid (0.1%) and transferred to a vial for LC-MS/MS analysis.
The formulation was successfully administered in 11 male sheep. Based on the plasma exposure profile the pharmacokinetic variables were calculated with standard methods (Table 4).

Setting [1] is: male sheep plasma, 250 mg implant into bulbourethral gland, individual animals.

Regarding `CC(C)(O)C(=O)Nc1ccc([N+](=O)[O-])c(C(F)(F)F)c1` [2-hydroxy-flutamide], the AUC (usually concentration integrated over time) under setting [1] is 3725 ng·h/mL and 3390 ng·h/mL and 3755 ng·h/mL and 1855 ng·h/mL and 4948 ng·h/mL and 4436 ng·h/mL and 4287 ng·h/mL; the AUC (male, sheep, plasma, 250 mg, male sheep, 250 mg implant into bulbourethral gland, Mean of seven sheep, read-out: AUC) came out at 3770 ng·h/mL. Further, the Cmax (in general, the peak of the concentration-time curve) reads like this: under setting [1], 84 ng/mL and 35 ng/mL and 19.8 ng/mL and 16.3 ng/mL and 34 ng/mL and 31 ng/mL and 26 ng/mL; (male, sheep, plasma, 250 mg, male sheep, 250 mg implant into bulbourethral gland, Mean of seven sheep, read-out: Cmax) 42 ng/mL. In addition, the t½ (in general, how long it takes for the measured level to halve) under setting [1] is 253 h and 117 h and 67 h and 168 h and 119 h and 140 h and 159 h. The Tmax – broadly, the time at which the peak concentration occurs – (male, sheep, plasma, 250 mg, male sheep, 250 mg implant into bulbourethral gland, Mean of seven sheep) stood at 9 h. The half-life is 146 h (male, sheep, plasma, 250 mg, male sheep, 250 mg implant into bulbourethral gland, Mean of seven sheep, read-out: t½ (converted)) and roughly 146 h (male, sheep, plasma, other: local implant into the bulbourethral gland via rectum, 250 mg, male sheep, 250 mg controlled release implant, read-out: elimination half-life (converted)).
